In test [1] the test system is IFN-gamma-secreting cells (PBMC). The experiment in a line: Ex vivo ELISPOT, PBMC stimulated with plain (non-complexed) peptide. Format: cell-based, human. Particulars: PBMC 3 × 10^5 cells/well. Here is the method:
The term “ELISPOT” is used herein, for purposes of the specification and claims, to mean an adaptation of ELISA in which cells are placed over antibodies or antigens attached to a plastic surface. The antigen or antibody traps the cells' secreted products, which can then be detected by using an enzyme-coupled antibody that cleaves a preferably colorless substrate to make a localized colored spot.
In another embodiment, experiments were conducted with the E75 or Telomerase peptides+HLA beads in ex vivo ELISPOT assays run in the absence of stimulation (i.e. culture medium) or with plain or non-complexed E75 or Telomerase peptides. […] These responses have been reproduced in a number of assays using peripheral blood samples from prostate and breast cancer patients. The beads need not be made by DYNAL Biotech. Another biochemical manufacturer—such as BD Biosciences, may produce them.
In another embodiment, experiments were conducted with the E75 or Telomerase peptides+HLA beads in ex vivo ELISPOT assays run with negative control peptides.

Test [2] shares this test system. The experiment in a line: Ex vivo ELISPOT, PBMC stimulated with artificial APC DYNAL beads + [MHC + peptide]. The class given is cell-based, human.

In the case of “NH2-RIAWARTEL-COOH (H-RIAWARTEL-OH) [Peptide E37, negative control peptide]”, the ELISPOT spots in test [1] was 1 spots.

Regarding “E37-ve: DYNAL beads + MHC + E37 negative control peptide (RIAWARTEL) [Peptide E37-ve]”, the ELISPOT spots in test [2] (1 × 10^5 beads/well, PBMC 1 × 10^5 cells/well) turned out to be 0 spots; in test [2] (1 × 10^5 beads/well, PBMC 2 × 10^5 cells/well) it was 6 spots; in test [2] (1 × 10^5 beads/well, PBMC 3 × 10^5 cells/well) it was 20 spots; in test [2] (5 × 10^5 beads/well, PBMC 1 × 10^5 cells/well), 0 spots; in test [2] (5 × 10^5 beads/well, PBMC 2 × 10^5 cells/well) it was 3 spots; in test [2] (5 × 10^5 beads/well, PBMC 3 × 10^5 cells/well), 8 spots.

The record behind these values is patent US8133691B2, “Stable quantitation and detection of immune response levels with non-zero background peptides” (The Henry M. Jackson Foundation for the Advancement of …, priority 2005, dated 2012).
